This is an account of results in patent publication US20090156563A1, “Glucan Compositions” (priority 2005, published 2009).

The assay deals with skin of the forearm. Nature of the assay: Determination of skin roughness (DIN 4768ff, profilometry of silicone skin impressions). Format: in vivo, human. The conditions noted are these: 10% glyceryl stearate, 8 hours after application. As to the method: An aqueous lotion for the treatment of skin roughness is formulated from an aqueous emulsion containing 10% by weight of glyceryl stearate and either 0.005% or 0.05% or 0.5% by weight of β-1,3-scleroglucan (using formulations A-D described further above).
The determination of skin roughness is conducted according to German standard DIN 4768ff. The roughness of the skin is determined by taking silicone-based skin impressions and then measuring the surface profile of the impressions, using computer-aided profilometry. The skin roughness is calculated from the multiple measuring points (100 points per square millimeter). The number of volunteers used is 10. The determination of skin roughness is conducted both prior to application of the test lotion and 8 hours after application of the test lotion. The skin of the forearm is used as the skin test area. For the purpose of comparison, a control experiment is conducted using a placebo containing none of the scleroglucan formulations.

For the substance β-1,3-scleroglucan, the “reduction of skin roughness (relative to untreated skin)” value is “good reduction” (lotion with 0.005% by weight β-1,3-scleroglucan (formulations A-D)) and “good reduction” (lotion with 0.05% by weight β-1,3-scleroglucan (formulations A-D)).
